Source: patent US10179790B2 (THOMAS HELLEDAYS STIFTELSE FOR MEDICINSK FORSKNING, priority 2014, dated 2019)

What was measured:
MTH1 = MTH1 (Homo sapiens, UniProt P36639); test: MTH1 enzymatic assay and IC50 value determination (malachite green, 96- and 384-well format); format: biochemical; conditions: hydrolysis of dGTP (100 μM), MTH1 6 nM, pyrophosphatase-coupled malachite green, 15 minutes at 22° C.
Procedure: MTH1 Enzymatic Assay and IC50 Value Determination
MTH1 catalyzes the hydrolysis of dGTP to dGMP and PPi. By coupling the reaction to pyrophosphatase added in excess PPi is converted to Pi that can be detected by using the malachite green assay reagent. Two different formats were used for IC50 determinations in the enzymatic assay, 96- and 384-well format. 96-Well Method:
Briefly, the compound to be analyzed is diluted in DMSO in a 1:3 dilution series generating 12 different compound concentrations giving a final DMSO concentration of 1% in the assay well. MTH1 diluted in assay buffer (100 mM Tris-acetate, 40 mM NaCl, 10 mM magnesium acetate, 1 mM DTT and 0.005% Tween 20) fortified with E. coli pyrophosphatase (0.2 U/ml) is added to a final concentration of 6 nM. dGTP diluted in assay buffer is added to a final concentration of 100 μM. The reaction mixture is incubated for 15 minutes at 22° C. To 100 μl reaction mixture, 25 μl Malachite green assay regent (0.095% Malachite green in 17% H2SO4, 1.5% Ammonium molybdate, 0.17% Tween 20) is added, followed by incubation with shaking for 15 minutes at 22° C. The absorbance of the assay plate is read at 630 nm using a Hidex Sense Multilabel plate reader. The IC50 value is determined by fitting a dose response curve to the data points using nonlinear regression analysis and the equation Y=Bottom+(Top−Bottom)/(1+10^((Log IC50−X)*HillSlope)), where Y is the read absorbance at 630 nm and X is log [compound].
The compounds to be tested are nano-dispensed, in 11 concentrations, directly in assay plates, with a final DMSO concentration <1%. The protocol and the reaction mixture are the same as for the 96-well assay, with a total reaction volume of 50 μl/well to which 10 μl of Malachite green reagent is added. All additions to the assay plates are made with multidrop.

cancer cell = test: Cell viability assay (resazurin); format: cell-based; conditions: 72 h; 3 days with compound, resazurin fluorescence; cell line not named
Procedure: The utility of the compounds of the present invention can be illustrated, for example, by their activity in vitro in the cancer cell clonogenic and/or viability assay described below. The link between activity in tumor cell clonogenic assay and anti-tumor activity in the clinical setting has been well established in the art (e.g. see ref Silverstini et al Stem Cells 1993, 11(6), 258-35).
Cells are seeded into 96 well plates (1000-3000 cells/well) in DMEM GlutaMAX™ or other suitable media dependent on cell line and incubated overnight in 5% CO2, 37° C. Thereafter cells are treated with compound or vehicle and left in incubator for 3 days until staining with resazurin. Cells are incubated in resazurin (diluted in suitable media) at 37° C. for 2 hours before measuring the fluorescence (Ex544/Em590).
The compounds to be tested are nano-dispensed in 11 concentrations, directly in 384-well cell plates, with a final DMSO concentration <1%. Cells are seeded in cell plates, pre-dispensed with compounds, 50 μl/well (600-1200 cells/well). After 3 days culture in 5% CO2, 37° C., resazurin diluted in PBS is added, 10 μl/well, and cells are incubated 3 hours before measuring fluorescence (Ex544/Em590).

Compound: Cc1cccc(-c2cc(NCCNc3nccc(C(N)=O)n3)nc(N)n2)c1C [Example 16, 2-[(2-{[2-amino-6-(2,3-dimethylphenyl)pyrimidin-4-yl]amino}ethyl)amino]pyrimidine-4-carboxamide]
- IC50 (MTH1): < 200 nM
- IC50 (cancer cell): < 500 nM

Compound: CC(=O)Nc1ccc(CCNc2cc(-c3cccc(C)c3C)nc(N)n2)cc1 [Example 19, N-[4-(2-{[2-amino-6-(2,3-dimethylphenyl)pyrimidin-4-yl]amino}ethyl)phenyl]acetamide]
- IC50 (MTH1): < 200 nM
- IC50 (cancer cell): < 500 nM

Compound: Cc1cccc(-c2cc(NCCc3ccc(NS(C)(=O)=O)cc3)nc(N)n2)c1C [Example 20, N-[4-(2-{[2-amino-6-(2,3-dimethylphenyl)pyrimidin-4-yl]amino}ethyl)phenyl]methanesulfonamide]
- IC50 (MTH1): < 200 nM
- IC50 (cancer cell): < 500 nM

Compound: CNS(=O)(=O)c1ccc(NCCNc2cc(-c3cccc(C)c3C)nc(N)n2)cc1 [Example 21, 4-[(2-{[2-amino-6-(2,3-dimethylphenyl)pyrimidin-4-yl]amino}ethyl)amino]-N-methylbenzene-1-sulfonamide]
- IC50 (MTH1): < 200 nM
- IC50 (cancer cell): < 500 nM

Compound: CC(=O)Nc1ccc(NCCNc2cc(-c3cccc(C)c3C)nc(N)n2)cc1C [Example 22, N-{4-[(2-{[2-amino-6-(2,3-dimethylphenyl)pyrimidin-4-yl]amino}ethyl)amino]-2-methylphenyl}acetamide]
- IC50 (MTH1): < 200 nM
- IC50 (cancer cell): < 500 nM

Compound: Cc1cccc(-c2cc(NCCNc3ccc4c(c3)NC(=O)CO4)nc(N)n2)c1C [Example 23, 6-[(2-{[2-amino-6-(2,3-dimethylphenyl)pyrimidin-4-yl]amino}ethyl)amino]-3,4-dihydro-2H-1,4-benzoxazin-3-one]
- IC50 (MTH1): < 200 nM
- IC50 (cancer cell): < 500 nM

Compound: Cc1cccc(-c2cc(NCCNc3ccccc3C(N)=O)nc(N)n2)c1C [Example 24, 2-[(2-{[2-amino-6-(2,3-dimethylphenyl)pyrimidin-4-yl]amino}ethyl)amino]benzamide]
- IC50 (MTH1): < 200 nM
- IC50 (cancer cell): < 500 nM

Compound: Cc1cccc(-c2cc(NCCOc3ccc(C(N)=O)cn3)nc(N)n2)c1C [Example 26, 6-(2-{[2-amino-6-(2,3-dimethylphenyl)pyrimidin-4-yl]amino}ethoxy)pyridine-3-carboxamide]
- IC50 (MTH1): < 200 nM
- IC50 (cancer cell): < 500 nM

Compound: CCOC(=O)c1ccc(NCCNc2cc(-c3cccc(C)c3C)nc(N)n2)nc1 [Example 28, ethyl 6-[(2-{[2-amino-6-(2,3-dimethylphenyl)pyrimidin-4-yl]amino}ethyl)amino]pyridine-3-carboxylate]
- IC50 (MTH1): < 200 nM
- IC50 (cancer cell): < 500 nM

Compound: Cc1cccc(-c2cc(NCCNc3ccc(S(N)(=O)=O)c(C(F)(F)F)c3)nc(N)n2)c1C [Example 29, 4-[(2-{[2-amino-6-(2,3-dimethylphenyl)pyrimidin-4-yl]amino}ethyl)amino]-2-(trifluoromethyl)benzene-1-sulfonamide]
- IC50 (MTH1): < 200 nM
- IC50 (cancer cell): < 500 nM

Compound: Cc1cccc(-c2cc(NCCNc3ccc(C(N)=O)cc3)nc(N)n2)c1C [Example 30, 4-[(2-{[2-amino-6-(2,3-dimethylphenyl)pyrimidin-4-yl]amino}ethyl)amino]benzamide]
- IC50 (MTH1): < 200 nM
- IC50 (cancer cell): < 500 nM

Compound: CCOC(=O)Nc1ccc(CCNc2cc(-c3cccc(C)c3C)nc(N)n2)cc1 [Example 31, ethyl N-[4-(2-{[2-amino-6-(2,3-dimethylphenyl)pyrimidin-4-yl]amino}ethyl)phenyl]carbamate]
- IC50 (MTH1): < 200 nM
- IC50 (cancer cell): < 500 nM

Compound: COc1ccc(NCCNc2cc(-c3cccc(C)c3C)nc(N)n2)cc1S(N)(=O)=O [Example 32, 5-[(2-{[2-amino-6-(2,3-dimethylphenyl)pyrimidin-4-yl]amino}ethyl)amino]-2-methoxybenzene-1-sulfonamide]
- IC50 (MTH1): < 200 nM
- IC50 (cancer cell): < 500 nM

Compound: Cc1c(Cl)cccc1-c1cc(NCCNc2ccc3c(c2)NC(=O)CO3)nc(N)n1 [Example 35, 6-[(2-{[2-amino-6-(3-chloro-2-methylphenyl)pyrimidin-4-yl]amino}ethyl)amino]-3,4-dihydro-2H-1,4-benzoxazin-3-one]
- IC50 (MTH1): < 200 nM
- IC50 (cancer cell): < 500 nM

Compound: Cc1nc2ccc(NCCNc3cc(-c4cccc(C)c4C)nc(N)n3)cc2s1 [Example 36, 6-(2,3-dimethylphenyl)-4-N-{2-[(2-methyl-1,3-benzothiazol-6-yl)amino]ethyl}pyrimidine-2,4-diamine]
- IC50 (MTH1): < 200 nM
- IC50 (cancer cell): < 500 nM

Compound: Nc1nc(NCCNc2ccc3c(c2)NC(=O)CO3)cc(-c2cccc(Cl)c2Cl)n1 [Example 38, 6-[(2-{[2-amino-6-(2,3-dichlorophenyl)pyrimidin-4-yl]amino}ethyl)amino]-3,4-dihydro-2H-1,4-benzoxazin-3-one]
- IC50 (MTH1): < 200 nM
- IC50 (cancer cell): < 500 nM

Compound: Cc1nc2ccc(NCCNc3cc(-c4cccc(Cl)c4Cl)nc(N)n3)cc2s1 [Example 39, 6-(2,3-dichlorophenyl)-4-N-{2-[(2-methyl-1,3-benzothiazol-6-yl)amino]ethyl}pyrimidine-2,4-diamine]
- IC50 (MTH1): < 200 nM
- IC50 (cancer cell): < 500 nM

Compound: Cc1cccc(-c2cc(NCCNc3cccc(S(C)(=O)=O)c3)nc(N)n2)c1C [Example 40, 6-(2,3-dimethylphenyl)-4-N-{2-[(3-methanesulfonylphenyl)amino]ethyl}pyrimidine-2,4-diamine]
- IC50 (MTH1): < 200 nM
- IC50 (cancer cell): < 500 nM

Compound: Cc1cccc(-c2cc(NCCNc3ccc(S(N)(=O)=O)cc3F)nc(N)n2)c1C [Example 42, 4-[(2-{[2-amino-6-(2,3-dimethylphenyl)pyrimidin-4-yl]amino}ethyl)amino]-3-fluorobenzene-1-sulfonamide]
- IC50 (MTH1): < 200 nM
- IC50 (cancer cell): < 500 nM

Compound: Cc1c(Cl)cccc1-c1cc(NCCc2ccc(C(N)=O)cc2)nc(N)n1 [Example 43, 4-(2-{[2-amino-6-(3-chloro-2-methylphenyl)pyrimidin-4-yl]amino}ethyl)benzamide]
- IC50 (MTH1): < 200 nM
- IC50 (cancer cell): < 500 nM

Compound: Cc1cccc(-c2cc(NCCc3ccc(C(N)=O)cc3)nc(N)n2)c1C [Example 44, 4-(2-{[2-amino-6-(2,3-dimethylphenyl)pyrimidin-4-yl]amino}ethyl)benzamide]
- IC50 (MTH1): < 200 nM
- IC50 (cancer cell): < 500 nM

Compound: CC(=O)Nc1cccc(CCNc2cc(-c3cccc(Cl)c3C)nc(N)n2)c1 [Example 46, N-[3-(2-{[2-amino-6-(3-chloro-2-methylphenyl)pyrimidin-4-yl]amino}ethyl)phenyl]acetamide]
- IC50 (MTH1): < 200 nM
- IC50 (cancer cell): < 500 nM

Compound: CCOC(=O)Nc1cccc(CCNc2cc(-c3cccc(Cl)c3C)nc(N)n2)c1 [Example 47, ethyl N-[3-(2-{[2-amino-6-(3-chloro-2-methylphenyl)pyrimidin-4-yl]amino}ethyl)phenyl]carbamate]
- IC50 (MTH1): < 200 nM
- IC50 (cancer cell): < 500 nM

Compound: Cc1c(Cl)cccc1-c1cc(NCCc2ccc3c(c2)NC(=O)CO3)nc(N)n1 [Example 48, 6-(2-{[2-amino-6-(3-chloro-2-methylphenyl)pyrimidin-4-yl]amino}ethyl)-3,4-dihydro-2H-1,4-benzoxazin-3-one]
- IC50 (MTH1): < 200 nM
- IC50 (cancer cell): < 500 nM

Compound: COC(=O)c1cnc(NCCNc2cc(-c3cccc(C)c3C)nc(N)n2)cn1 [Example 49, methyl 5-[(2-{[2-amino-6-(2,3-dimethylphenyl)pyrimidin-4-yl]amino}ethyl)amino]pyrazine-2-carboxylate]
- IC50 (MTH1): < 200 nM
- IC50 (cancer cell): < 500 nM

Compound: Cc1c(Cl)cccc1-c1cc(NCCc2cccc(S(C)(=O)=O)c2)nc(N)n1 [Example 52, 6-(3-chloro-2-methylphenyl)-4-N-[2-(3-methanesulfonylphenyl)ethyl]pyrimidine-2,4-diamine]
- IC50 (MTH1): < 200 nM
- IC50 (cancer cell): < 500 nM

Compound: Cc1c(Cl)cccc1-c1cc(NCCc2cccc(S(N)(=O)=O)c2)nc(N)n1 [Example 53, 3-(2-{[2-amino-6-(3-chloro-2-methylphenyl)pyrimidin-4-yl]amino}ethyl)benzene-1-sulfonamide]
- IC50 (MTH1): < 200 nM
- IC50 (cancer cell): < 500 nM

Compound: Nc1nc(NCCc2cccc(S(N)(=O)=O)c2)cc(-c2cccc(Cl)c2Cl)n1 [Example 54, 3-(2-{[2-amino-6-(2,3-dichlorophenyl)pyrimidin-4-yl]amino}ethyl)benzene-1-sulfonamide]
- IC50 (MTH1): < 200 nM
- IC50 (cancer cell): < 500 nM
